According to patent US4148896A, “Antidepressant combination” (E. I. Du Pont de Nemours and Company, priority 1978, dated 1979):
Read-outs that look alike come from different tables or passages of the source.

Experiments:
mice = settings: for NUMBER OF MICE DEAD: N=10; for Effect of amantadine on molindone toxicity (mortality): mice, oral
[1] = tested on: tetrabenazine-induced sedation; assay: Mouse antidepressant (antitetrabenazine) test: prevention of tetrabenazine-induced ptosis and loss of exploratory activity; settings: for ED50: Mus musculus, po; for No. of Mice Blocked, EXPLORATORY ACTIVITY / No. of Mice Blocked, PTOSIS: 1 h after amantadine
mouse brain MAO [2] = target: T1, mouse brain MAO (Mus musculus, UniProt Q64133); assay: biochemical
T1 sequence (Q64133 1-526): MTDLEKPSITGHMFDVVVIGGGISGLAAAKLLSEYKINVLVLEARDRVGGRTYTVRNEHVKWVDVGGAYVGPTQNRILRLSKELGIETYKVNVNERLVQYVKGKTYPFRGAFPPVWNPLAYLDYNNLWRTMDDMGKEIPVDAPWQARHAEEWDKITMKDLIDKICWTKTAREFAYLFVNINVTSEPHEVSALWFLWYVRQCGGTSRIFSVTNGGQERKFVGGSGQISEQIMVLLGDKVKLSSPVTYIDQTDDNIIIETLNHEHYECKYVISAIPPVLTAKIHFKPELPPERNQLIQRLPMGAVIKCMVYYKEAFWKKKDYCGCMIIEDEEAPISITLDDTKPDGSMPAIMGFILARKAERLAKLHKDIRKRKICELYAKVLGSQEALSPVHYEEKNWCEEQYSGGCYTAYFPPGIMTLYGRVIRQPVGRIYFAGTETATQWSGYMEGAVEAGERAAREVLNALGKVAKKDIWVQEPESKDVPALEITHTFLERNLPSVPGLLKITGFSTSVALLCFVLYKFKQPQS

mouse brain MAO [3] = target: T1, mouse brain MAO; settings: substrate 5 HT
[4] = 1 mg/kg oral (free base), 1 h, N=10
[5] = 3 mg/kg oral (free base), 1 h, N=10
[6] = 9 mg/kg oral (free base), 1 h, N=10
[7] = 20 mg/kg oral (free base), 0.5 h, N=20
[8] = 20 mg/kg oral (free base), 1 h, N=20
[9] = 20 mg/kg oral (free base), 2 h, N=20
[10] = 20 mg/kg oral (free base), 4 h, N=20
[11] = 27 mg/kg oral (free base), 1 h, N=10
[12] = 81 mg/kg oral (free base), 1 h, N=10
[13] = amantadine 2 mg/kg oral alone, N=20
[14] = amantadine 6 mg/kg oral alone, N=20
[15] = amantadine 18 mg/kg oral alone, N=20
[16] = amantadine 54 mg/kg oral alone, N=20
[17] = amantadine alone, oral, 1 h, free base basis, N=20 (Table 2)

Compound: NC12CC3CC(CC(C3)C1)C2 [Amantadine, 1-adamantanamine]
- NUMBER OF MICE DEAD (mice; amantadine 267 mg/kg oral alone, 0.5 h): 0
- NUMBER OF MICE DEAD (mice; amantadine 267 mg/kg oral alone, 1 h): 0
- NUMBER OF MICE DEAD (mice; amantadine 267 mg/kg oral alone, 2 h): 0
- NUMBER OF MICE DEAD (mice; amantadine 267 mg/kg oral alone, 4 h): 0
- NUMBER OF MICE DEAD (mice; amantadine 267 mg/kg oral alone, 24 h): 0
- NUMBER OF MICE DEAD (mice; amantadine 267 mg/kg oral alone, 336 h): 0
- NUMBER OF MICE DEAD (mice; amantadine 400 mg/kg oral alone, 0.5 h): 1
- NUMBER OF MICE DEAD (mice; amantadine 400 mg/kg oral alone, 1 h): 1
- NUMBER OF MICE DEAD (mice; amantadine 400 mg/kg oral alone, 2 h): 1
- NUMBER OF MICE DEAD (mice; amantadine 400 mg/kg oral alone, 4 h): 1
- NUMBER OF MICE DEAD (mice; amantadine 400 mg/kg oral alone, 24 h): 1
- NUMBER OF MICE DEAD (mice; amantadine 400 mg/kg oral alone, 336 h): 1
- NUMBER OF MICE DEAD (mice; amantadine 600 mg/kg oral alone, 0.5 h): 4
- NUMBER OF MICE DEAD (mice; amantadine 600 mg/kg oral alone, 1 h): 4
- NUMBER OF MICE DEAD (mice; amantadine 600 mg/kg oral alone, 2 h): 4
- NUMBER OF MICE DEAD (mice; amantadine 600 mg/kg oral alone, 4 h): 4
- NUMBER OF MICE DEAD (mice; amantadine 600 mg/kg oral alone, 24 h): 5
- NUMBER OF MICE DEAD (mice; amantadine 600 mg/kg oral alone, 336 h): 5
- NUMBER OF MICE DEAD (mice; amantadine 900 mg/kg oral alone, 0.5 h): 8
- NUMBER OF MICE DEAD (mice; amantadine 900 mg/kg oral alone, 1 h): 8
- NUMBER OF MICE DEAD (mice; amantadine 900 mg/kg oral alone, 2 h): 8
- NUMBER OF MICE DEAD (mice; amantadine 900 mg/kg oral alone, 4 h): 8
- NUMBER OF MICE DEAD (mice; amantadine 900 mg/kg oral alone, 24 h): 8
- NUMBER OF MICE DEAD (mice; amantadine 900 mg/kg oral alone, 336 h): 8
- NUMBER OF MICE DEAD (mice; amantadine 1350 mg/kg oral alone, 0.5 h): 10
- NUMBER OF MICE DEAD (mice; amantadine 1350 mg/kg oral alone, 1 h): 10
- NUMBER OF MICE DEAD (mice; amantadine 1350 mg/kg oral alone, 2 h): 10
- NUMBER OF MICE DEAD (mice; amantadine 1350 mg/kg oral alone, 4 h): 10
- NUMBER OF MICE DEAD (mice; amantadine 1350 mg/kg oral alone, 24 h): 10
- NUMBER OF MICE DEAD (mice; amantadine 1350 mg/kg oral alone, 336 h): 10
- Effect of amantadine on molindone toxicity (mortality) (mice): decreases the toxicity of molindone
- Effect of amantadine on molindone toxicity (mortality) (mice; listed as amantadine hydrochloride): reduces molindone hydrochloride lethal toxicity
- NUMBER OF MICE BLOCKED, EXPLORATORY ACTIVITY [1, 4]: 0
- NUMBER OF MICE BLOCKED, PTOSIS [1, 4]: 1
- NUMBER OF MICE BLOCKED, EXPLORATORY ACTIVITY [1, 5]: 0
- NUMBER OF MICE BLOCKED, PTOSIS [1, 5]: 1
- NUMBER OF MICE BLOCKED, EXPLORATORY ACTIVITY [1, 6]: 4
- NUMBER OF MICE BLOCKED, PTOSIS [1, 6]: 5
- NUMBER OF MICE BLOCKED, EXPLORATORY ACTIVITY [1, 7]: 1
- NUMBER OF MICE BLOCKED, PTOSIS [1, 7]: 4
- NUMBER OF MICE BLOCKED, EXPLORATORY ACTIVITY [1, 8]: 8
- NUMBER OF MICE BLOCKED, PTOSIS [1, 8]: 13
- NUMBER OF MICE BLOCKED, EXPLORATORY ACTIVITY [1, 9]: 6
- NUMBER OF MICE BLOCKED, PTOSIS [1, 9]: 11
- NUMBER OF MICE BLOCKED, EXPLORATORY ACTIVITY [1, 10]: 0
- NUMBER OF MICE BLOCKED, PTOSIS [1, 10]: 2
- NUMBER OF MICE BLOCKED, EXPLORATORY ACTIVITY [1, 11]: 4
- NUMBER OF MICE BLOCKED, PTOSIS [1, 11]: 7
- NUMBER OF MICE BLOCKED, EXPLORATORY ACTIVITY [1, 12]: 8
- NUMBER OF MICE BLOCKED, PTOSIS [1, 12]: 10
- ED50 ([1]; 1 h, read-out: ED50, E[…], oral, free base basis, 1 h after drug (Table 1)): 24 mg/kg
- ED50 ([1]; 1 h, read-out: ED50, PTOSIS, oral, free base basis, 1 h after drug (Table 1)): 9.6 mg/kg
- No. of Mice Blocked, EXPLORATORY ACTIVITY [1, 13]: 0
- No. of Mice Blocked, PTOSIS [1, 13]: 2
- No. of Mice Blocked, EXPLORATORY ACTIVITY [1, 14]: 2
- No. of Mice Blocked, PTOSIS [1, 14]: 4
- No. of Mice Blocked, EXPLORATORY ACTIVITY [1, 15]: 12
- No. of Mice Blocked, PTOSIS [1, 15]: 17
- No. of Mice Blocked, EXPLORATORY ACTIVITY [1, 16]: 16
- No. of Mice Blocked, PTOSIS [1, 16]: 19
- ED50, EXPLORATORY ACTIVITY, Amantadine [1, 17]: 16.6 mg/kg
- ED50, PTOSIS, Amantadine [1, 17]: 9.4 mg/kg
- ED50, PTOSIS ([1]; oral, free base basis, 1 h after drug (Table 1), 60 min): 9.4 mg/kg

Compound: NNCCc1ccccc1 [PHENELZINE . SO4]
- IC50 (mouse brain MAO [2]): 4 µM
- % INHIBITION (mouse brain MAO [3]; final conc. 10^-4 m/l): 88%
- % INHIBITION (mouse brain MAO [3]; final conc. 10^-5 m/l): 81%
- % INHIBITION (mouse brain MAO [3]; final conc. 10^-6 m/l): 3%
